Assay results taken from patent US12611387B2, “Compound and composition for inducing neuroprotection” (REST THERAPEUTICS, priority 2020, dated 2026).

Key:
[1] = test system: Aβ25-35 oligomer-intoxicated mice; assay: Morris water maze, symptomatic treatment; format: in vivo; details: symptomatic design (not shown)
Description: (§1) The test compounds were tested for their ability to decrease the cognitive symptoms of Aβ25-35 oligomer-induced neurodegeneration, i.e. their ability to provide symptomatic anti-amnestic treatment (FIGS. 1A and 1B). In brief, to test the symptomatic effect of the test compounds, they were administered 8 days after the icy injection of the Aβ25-35 oligomers, 30 minutes before the YMT and PAT memory tests were conducted or 30 minutes before the test, but after the training session, in the case of the MWT or ORT (FIG. 1A). The Hamlet Test® (FIG. 1B) involves a 2-week training session (4 hr/day) followed by a test (max. 10 min) under water deprivation conditions and under normal conditions; the Aβ25-35 peptide is injected after this first test. […]
This test is used to assess long-term spatial reference memory. […] The animals' swimming behaviour was recorded (Videotrack® software, Viewpoint), and the trajectories, latencies and distances covered were measured. […] Median latency (time taken to find the platform) was calculated for each training day and expressed for the group as the mean latency±standard deviation. […] Each mouse was left in the water for 60 seconds and its swimming behaviour was recorded. The time spent in the north-eastern quadrant, which originally contained the platform (T), was measured and compared to the average time spent in the other quadrants (o).

[2] = test system: Aβ25-35 oligomer-intoxicated mice; assay: Hamlet test, symptomatic treatment; format: in vivo, C57Bl/6j mice; details: 0.3 mg/Kg, symptomatic design
Description: as §1, with “1A).” for “1A). The Hamlet Test® (FIG. 1B) involves a 2-week training session (4 hr/day) followed by a test (max. 10 min) under water deprivation conditions and under normal conditions; the Aβ25-35 peptide is injected after this first test.”
The Hamlet Test® device, with a diameter of 1.2 m, comprises a central square (the agora) and streets that radiate out therefrom and lead to functionalised compartments or houses that allow a physiological function to be met or that enrich the environment. The walls and streets of the hamlet were made of infrared-transparent PVC, the test room was uniformly lit (200 Lux), infrared diodes were placed under the floor of the hamlet and an infrared camera recorded the behaviour of the animals. […]
This test was described by Crouzier et al. (2018 a and b). […] The exploratory behaviour was recorded alongside the time taken to find the Drink house and the number of errors made (number of entries into a street not leading to the Drink house). […] A disorientation index (DI) was calculated for each variable (time to find the drink house, number of errors): […]

[3] = test system: Aβ25-35 oligomer-intoxicated mice; assay: Object recognition test, symptomatic treatment; format: in vivo; details: symptomatic design (not shown)
Description: as §1, with “test. After one week, the compounds are administered and a second test under water deprivation conditions and under normal conditions is performed 30 min after injection.” for “test.”
This test is used to assess recognition memory abilities (Rodriguez Cruz et al., 2017; Maurice et al., 2019). […] The exploratory behaviour, activity and position of the animal's nose were recorded for 10 minutes (Nosetrack® software, Viewpoint, Lissieu, France). The number of contacts with the objects and the duration thereof were measured. […] The exploratory behaviour of each mouse was then also recorded for 10 minutes. […]
An exploration index was calculated using to the following formula: […]

NMDA receptors = details: described in WO 2014/191424; cited from earlier work

NC12CC3CC(C1)CC(CCF)(C3)C2 [FENM, 3-(2-fluoroethyl)adamantan-1-amine]
anti-amnestic effect in Morris water maze [1]: confirmed
disorientation index calculated for errors [2]: reduced to the level of those of the untreated, non-intoxicated mice
disorientation index calculated for latency [2]: reduced to the level of those of the untreated, non-intoxicated mice
anti-amnestic effect in object recognition [3]: confirmed
affinity for NMDA receptors (NMDA receptors): of an order of magnitude that is similar to that of memantine
